Results taken from US11814367B2, “Inhibitors of glycogen synthase 1 (GYS1) and methods of use thereof” (Maze Therapeutics, Inc., priority 2021, dated 2023).

Columns and labels:
[1] = target: hGYS2 enzyme (recombinant hGYS2/GN1 protein) (Homo sapiens (Human), UniProt P54840); assay: GYS2 coupled enzyme assay (PK/LDH); assay type: biochemical; conditions: geometric mean of at least 2 assay runs on separate days, read-out: Avg_IC50
In short: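 IC50 came from Hill fits of duplicate percent inhibition, based on control-normalized slopes of 340 nm NADH decline read each minute for 10 min. The reaction held recombinant hGYS2/GN1 (200 nM) with glycogen, UDP-glucose, G6P and PEP, plus PK/LDH coupling at pH 7.5 and 2.5% DMSO.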

[2] = target: hGYS1 enzyme (recombinant hGYS1/GN1 protein) (Homo sapiens (Human), UniProt P13807); assay: GYS1 coupled enzyme assay (PK/LDH); assay type: biochemical; conditions: hGYS1/GN1 50 nM, UDP-Glucose 0.8 mM, G6P 1 mM; geometric mean of at least 2 runs
Chain of hGYS1 enzyme (recombinant hGYS1/GN1 protein) (P13807 whole entry): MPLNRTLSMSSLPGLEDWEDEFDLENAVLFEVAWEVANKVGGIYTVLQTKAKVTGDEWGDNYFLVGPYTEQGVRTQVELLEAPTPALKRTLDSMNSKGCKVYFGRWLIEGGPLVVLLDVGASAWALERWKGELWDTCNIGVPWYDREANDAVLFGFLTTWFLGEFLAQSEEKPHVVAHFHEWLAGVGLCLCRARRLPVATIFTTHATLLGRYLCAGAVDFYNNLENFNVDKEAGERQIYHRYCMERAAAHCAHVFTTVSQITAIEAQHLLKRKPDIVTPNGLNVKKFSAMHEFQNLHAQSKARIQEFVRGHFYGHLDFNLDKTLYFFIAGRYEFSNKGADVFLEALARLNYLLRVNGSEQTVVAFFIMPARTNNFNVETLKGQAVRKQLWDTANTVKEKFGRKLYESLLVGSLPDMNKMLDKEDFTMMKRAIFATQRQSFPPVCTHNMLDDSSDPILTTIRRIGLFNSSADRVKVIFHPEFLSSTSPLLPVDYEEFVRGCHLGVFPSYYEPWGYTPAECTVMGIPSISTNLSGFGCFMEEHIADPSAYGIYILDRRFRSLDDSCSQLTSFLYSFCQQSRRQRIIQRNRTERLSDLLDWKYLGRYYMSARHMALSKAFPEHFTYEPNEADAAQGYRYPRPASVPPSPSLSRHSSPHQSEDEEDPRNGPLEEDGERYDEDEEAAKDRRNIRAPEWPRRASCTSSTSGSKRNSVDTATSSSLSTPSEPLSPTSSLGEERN
Chain of hGYS1 enzyme (recombinant hGYS1/GN1 protein) (P46976 whole entry partner): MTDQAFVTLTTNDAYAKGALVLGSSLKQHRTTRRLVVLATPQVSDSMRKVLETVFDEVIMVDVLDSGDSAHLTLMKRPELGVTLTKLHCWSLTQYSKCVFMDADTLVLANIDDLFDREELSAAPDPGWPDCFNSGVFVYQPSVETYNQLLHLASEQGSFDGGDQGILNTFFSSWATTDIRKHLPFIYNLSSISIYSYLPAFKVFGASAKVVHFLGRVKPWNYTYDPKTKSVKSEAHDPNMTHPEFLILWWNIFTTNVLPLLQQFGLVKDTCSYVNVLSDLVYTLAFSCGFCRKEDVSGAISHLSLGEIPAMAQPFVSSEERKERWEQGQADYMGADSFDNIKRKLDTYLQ

Chain of hGYS2 enzyme (recombinant hGYS2/GN1 protein) (P54840 whole entry): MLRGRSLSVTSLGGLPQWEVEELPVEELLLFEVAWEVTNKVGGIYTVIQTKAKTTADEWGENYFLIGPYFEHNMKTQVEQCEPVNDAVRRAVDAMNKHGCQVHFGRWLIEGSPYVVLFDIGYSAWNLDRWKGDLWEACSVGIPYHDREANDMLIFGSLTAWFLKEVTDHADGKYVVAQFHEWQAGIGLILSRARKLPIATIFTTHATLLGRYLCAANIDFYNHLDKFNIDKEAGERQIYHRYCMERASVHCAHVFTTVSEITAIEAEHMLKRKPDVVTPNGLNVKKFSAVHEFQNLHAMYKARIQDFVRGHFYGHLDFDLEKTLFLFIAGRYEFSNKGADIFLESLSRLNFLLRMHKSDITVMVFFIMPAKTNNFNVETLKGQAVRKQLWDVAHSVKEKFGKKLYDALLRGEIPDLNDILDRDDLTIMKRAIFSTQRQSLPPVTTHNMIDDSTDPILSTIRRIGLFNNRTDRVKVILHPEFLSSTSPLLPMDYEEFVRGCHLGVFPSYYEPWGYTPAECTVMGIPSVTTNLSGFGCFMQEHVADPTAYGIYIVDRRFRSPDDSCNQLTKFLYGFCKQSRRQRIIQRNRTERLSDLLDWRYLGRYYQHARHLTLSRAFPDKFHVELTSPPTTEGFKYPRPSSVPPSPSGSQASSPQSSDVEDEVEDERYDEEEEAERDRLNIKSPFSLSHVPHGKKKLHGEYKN
Chain of hGYS2 enzyme (recombinant hGYS2/GN1 protein) (P46976 whole entry partner): as the sequence (P46976 whole entry partner) above

Compound	IC50 [1]	IC50 [2]
CC(=O)N1CCC[C@@H](CC(=O)N2C[C@H](F)C[C@H]2C(=O)N[C@@H](c2ccccc2)c2ccc(C(C)C)cc2)C1 [Compound 171, (2S,4R)-1-{2-[(3S)-1-acetylpiperidin-3-yl]acetyl}-4-fluoro-N-[(S)-phenyl[4-(propan-2-yl)phenyl]methyl]pyrrolidine-2-carboxamide]	> 100000 nM	97 nM
O=C(N[C@@H](c1ccccc1)c1ccc(C2CC2)c(Cl)c1)[C@@H]1C[C@@H](F)CN1C(=O)Cc1cnn[nH]1 [Compound 664, (2S,4R)-N-[(S)-(3-chloro-4-cyclopropylphenyl) (phenyl)methyl]-4-fluoro-1-[2-(1H-1,2,3-triazol-5-yl)acetyl]pyrrolidine-2-carboxamide]	> 100000 nM	115 nM
CC(C)c1ccc([C@@H](NC(=O)[C@@H]2C[C@@H](F)CN2C(=O)CN2CCCCC2=O)c2ccccc2)cc1 [Compound 85, (2S,4R)-4-fluoro-1-[2-(2-oxopiperidin-1-yl)acetyl]-N-[(S)-phenyl[4-(propan-2-yl)phenyl]methyl]pyrrolidine-2-carboxamide]	> 100000 nM	154 nM
CC(C)c1ccc([C@@H](NC(=O)[C@@H]2C[C@@H](F)CN2C(=O)C2(c3nnco3)CC2)c2ccccc2)cc1F [Compound 333, (2S,4R)-4-fluoro-N-[(S)-[3-fluoro-4-(propan-2-yl)phenyl](phenyl)methyl]-1-[1-(1,3,4-oxadiazol-2-yl)cyclopropanecarbonyl] pyrrolidine-2-carboxamide]	> 100000 nM	165 nM
CC(C)c1ccc([C@@H](NC(=O)[C@@H]2C[C@@H](F)CN2C(=O)CCn2cncn2)c2ccccc2)cc1 [Compound 35, (2S,4R)-4-fluoro-N-[(S)-phenyl[4-(propan-2-yl)phenyl]methyl]-1-[3-(1H-1,2,4-triazol-1-yl)propanoyl]pyrrolidine-2-carboxamide]	> 100000 nM	185 nM
Cc1noc(C)c1CC(=O)N1C[C@H](F)C[C@H]1C(=O)N[C@@H](c1ccccc1)c1ccc(C(C)C)cc1 [Compound 70, (2S,4R)-1-[2-(3,5-dimethyl-1,2-oxazol-4-yl)acetyl]-4-fluoro-N-[(S)-phenyl[4-(propan-2-yl)phenyl]methyl]pyrrolidine-2-carboxamide]	> 100000 nM	50 nM
CC(=O)N1CCC(C(=O)N2C[C@H](F)C[C@H]2C(=O)N[C@@H](c2ccccc2)c2ccc(C(C)C)cc2)C1 (stereo partly drawn) [Compound 147, (2S,4R)-1-(1-acetylpyrrolidine-3-carbonyl)-4-fluoro-N-[(S)-phenyl[4-(propan-2-yl)phenyl]methyl]pyrrolidine-2-carboxamide]	> 100000 nM	127 nM
CC(C)c1ccc([C@@H](NC(=O)[C@@H]2C[C@@H](F)CN2C(=O)Cc2cnccn2)c2ccccc2)cc1F [Compound 344]	> 100000 nM	13 nM
CC(C)c1ccc([C@@H](NC(=O)[C@@H]2C[C@@H](F)CN2C(=O)Cc2cnn[nH]2)c2ccc(F)cc2)cc1F [Compound 646, (2S,4R)-4-fluoro-N-[(S)-[3-fluoro-4-(propan-2-yl)phenyl](4-fluorophenyl)methyl]-1-[2-(1H-1,2,3-triazol-5-yl)acetyl]pyrrolidine-2-carboxamide]	> 100000 nM	48 nM
CC(C)c1ccc([C@@H](NC(=O)[C@@H]2C[C@@H](F)CN2C(=O)COc2cccnc2)c2ccccc2)cc1 [Compound 48, (2S,4R)-4-fluoro-N-[(S)-phenyl[4-(propan-2-yl)phenyl]methyl]-1-[2-(pyridin-3-yloxy)acetyl]pyrrolidine-2-carboxamide]	> 100000 nM	44 nM
CC(C)c1ccc([C@@H](NC(=O)[C@@H]2C[C@@H](F)CN2C(=O)[C@@H]2CNC(=O)O2)c2ccccc2)cc1 [Compound 8, (2S,4R)-4-fluoro-1-[(5S)-2-oxo-1,3-oxazolidine-5-carbonyl]-N-[(S)-phenyl[4-(propan-2-yl)phenyl]methyl]pyrrolidine-2-carboxamide]	> 100000 nM	42 nM
CC(=O)N(CC(N)=O)CC(=O)N1C[C@H](F)C[C@H]1C(=O)N[C@@H](c1ccccc1)c1ccc(C(C)C)cc1 [Compound 189, (2S,4R)-1-{2-[N-(carbamoylmethyl)acetamido]acetyl}-4-fluoro-N-[(S)-phenyl[4-(propan-2-yl)phenyl]methyl]pyrrolidine-2-carboxamide]	> 100000 nM	95 nM
CC(C)c1ccc([C@@H](NC(=O)[C@@H]2C[C@@H](F)CN2C(=O)Cc2ccc3ncccc3c2)c2ccccc2)cc1 [Compound 96, (2S,4R)-4-fluoro-N-[(S)-phenyl[4-(propan-2-yl)phenyl]methyl]-1-[2-(quinolin-6-yl)acetyl]pyrrolidine-2-carboxamide]	> 100000 nM	21 nM
Cc1cc(CC(=O)N2C[C@H](F)C[C@H]2C(=O)N[C@@H](c2ccccc2)c2ccc(C(C)C)cc2)nn1C [Compound 83, (2S,4R)-1-[2-(1,5-dimethyl-1H-pyrazol-3-yl)acetyl]-4-fluoro-N-[(S)-phenyl[4-(propan-2-yl)phenyl]methyl]pyrrolidine-2-carboxamide]	> 100000 nM	15 nM
O=C(N[C@@H](c1ccccc1)c1ccc(C2CC2)c(F)c1)[C@@H]1C[C@@H](F)CN1C(=O)Cc1nnc(C(F)(F)F)o1 [Compound 428, (2S,4R)-N-[(S)-(4-cyclopropyl-3-fluorophenyl)(phenyl)methyl]-4-fluoro-1-{2-[5-(trifluoromethyl)-1,3,4-oxadiazol-2-yl]acetyl}pyrrolidine-2-carboxamide]	> 100000 nM	374 nM
Cc1cc(C)n(CCC(=O)N2C[C@H](F)C[C@H]2C(=O)N[C@@H](c2ccccc2)c2ccc(C(C)C)cc2)n1 [Compound 106, (2S,4R)-1-[3-(3,5-dimethyl-1H-pyrazol-1-yl)propanoyl]-4-fluoro-N-[(S)-phenyl[4-(propan-2-yl)phenyl]methyl]pyrrolidine-2-carboxamide]	> 100000 nM	186 nM
CC(=O)N1C[C@H](O)C[C@H]1C(=O)N[C@@H](c1ccccc1)c1ccc(C(C)C)cc1 [Compound 205, (2S,4R)-1-acetyl-4-hydroxy-N-[(S)-phenyl[4-(propan-2-yl)phenyl]methyl]pyrrolidine-2-carboxamide]	> 100000 nM	3740 nM
CC(=O)N1CCC(C(=O)N2C[C@H](F)C[C@H]2C(=O)N[C@@H](c2ccccc2)c2ccc(C(C)C)cc2)CC1 [Compound 144, (2S,4R)-1-(1-acetylpiperidine-4-carbonyl)-4-fluoro-N-[(S)-phenyl[4-(propan-2-yl)phenyl]methyl]pyrrolidine-2-carboxamide]	> 100000 nM	168 nM
CC(=O)N1CCC(C(C)C(=O)N2C[C@H](F)C[C@H]2C(=O)N[C@@H](c2ccccc2)c2ccc(C(C)C)cc2)CC1 (stereo partly drawn) [Compound 180, (2S,4R)-1-[2-(1-acetylpiperidin-4-yl)propanoyl]-4-fluoro-N-[(S)-phenyl[4-(propan-2-yl)phenyl]methyl]pyrrolidine-2-carboxamide]	> 100000 nM	235 nM
CC(C)c1ccc([C@@H](NC(=O)[C@@H]2C[C@@H](F)CN2C(=O)Cc2cccnc2)c2ccccc2)cc1 [Compound 38, (2S,4R)-4-fluoro-N-[(S)-phenyl[4-(propan-2-yl)phenyl]methyl]-1-[2-(pyridin-3-yl)acetyl]pyrrolidine-2-carboxamide]	> 100000 nM	51 nM
